{"source": "ChEMBL document CHEMBL5465560", "about": "“Selectivity Literature for EUbOPEN Chemogenomic Library” (2024)", "key": {"[1]": {"molecular_target": "Serine/threonine-protein kinase SIK1 (Homo sapiens) (UniProt P57059)", "conditions": "at 10 µM"}, "[2]": {"molecular_target": "Ribosomal protein S6 kinase alpha-5 (Homo sapiens) (UniProt O75582)", "sequence (O75582 whole entry, looked up)": "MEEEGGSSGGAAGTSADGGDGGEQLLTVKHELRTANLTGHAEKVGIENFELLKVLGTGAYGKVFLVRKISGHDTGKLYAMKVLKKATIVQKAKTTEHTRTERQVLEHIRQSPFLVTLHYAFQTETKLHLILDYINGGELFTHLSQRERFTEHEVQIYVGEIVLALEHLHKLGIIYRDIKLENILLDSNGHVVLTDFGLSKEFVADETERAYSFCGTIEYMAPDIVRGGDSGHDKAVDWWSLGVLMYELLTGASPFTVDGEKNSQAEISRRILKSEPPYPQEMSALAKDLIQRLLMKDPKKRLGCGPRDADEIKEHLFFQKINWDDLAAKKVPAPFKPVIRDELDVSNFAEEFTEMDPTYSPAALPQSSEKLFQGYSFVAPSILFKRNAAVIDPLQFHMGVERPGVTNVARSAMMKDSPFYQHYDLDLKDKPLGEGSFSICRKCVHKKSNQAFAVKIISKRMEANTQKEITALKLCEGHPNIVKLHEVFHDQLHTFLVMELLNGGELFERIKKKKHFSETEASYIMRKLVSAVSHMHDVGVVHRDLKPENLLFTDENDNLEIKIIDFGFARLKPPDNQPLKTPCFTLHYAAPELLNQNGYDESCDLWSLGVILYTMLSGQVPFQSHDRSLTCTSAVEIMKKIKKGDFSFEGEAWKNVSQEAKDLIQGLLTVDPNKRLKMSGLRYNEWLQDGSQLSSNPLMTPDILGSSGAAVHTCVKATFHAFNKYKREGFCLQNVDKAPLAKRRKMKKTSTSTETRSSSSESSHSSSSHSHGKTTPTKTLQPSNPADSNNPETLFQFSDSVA", "conditions": "at 10 µM"}, "[3]": {"molecular_target": "Calcium/calmodulin-dependent protein kinase type II subunit beta (Homo sapiens) (UniProt Q13554)", "sequence (Q13554 whole entry)": "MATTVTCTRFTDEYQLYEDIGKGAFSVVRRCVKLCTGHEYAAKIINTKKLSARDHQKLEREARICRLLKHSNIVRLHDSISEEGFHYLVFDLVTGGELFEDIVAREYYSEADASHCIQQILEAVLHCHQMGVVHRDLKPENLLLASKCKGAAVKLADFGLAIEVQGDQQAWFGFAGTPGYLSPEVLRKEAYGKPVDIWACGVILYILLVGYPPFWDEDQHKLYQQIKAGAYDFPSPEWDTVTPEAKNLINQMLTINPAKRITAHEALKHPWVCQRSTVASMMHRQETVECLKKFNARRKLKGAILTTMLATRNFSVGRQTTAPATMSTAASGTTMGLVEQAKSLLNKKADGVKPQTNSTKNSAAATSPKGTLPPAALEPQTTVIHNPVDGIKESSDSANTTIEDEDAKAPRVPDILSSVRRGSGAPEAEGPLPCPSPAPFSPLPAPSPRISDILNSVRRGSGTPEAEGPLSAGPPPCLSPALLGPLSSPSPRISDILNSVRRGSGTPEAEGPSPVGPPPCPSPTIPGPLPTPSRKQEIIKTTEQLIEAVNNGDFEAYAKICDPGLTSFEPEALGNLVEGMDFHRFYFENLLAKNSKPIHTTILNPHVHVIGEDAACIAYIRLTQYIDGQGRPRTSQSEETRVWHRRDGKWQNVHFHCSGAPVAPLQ", "experiment": "Selectivity interaction (ActivX KiNativ screen (kinase selectivity in THP-1 cell lysates)) EUB0000639a CAMK2B", "type": "subcellular", "conditions": "lysate, at 0.2 µM"}, "[4]": {"molecular_target": "Mitogen-activated protein kinase kinase kinase 4 (Homo sapiens) (UniProt Q9Y6R4)", "sequence (Q9Y6R4 whole entry)": "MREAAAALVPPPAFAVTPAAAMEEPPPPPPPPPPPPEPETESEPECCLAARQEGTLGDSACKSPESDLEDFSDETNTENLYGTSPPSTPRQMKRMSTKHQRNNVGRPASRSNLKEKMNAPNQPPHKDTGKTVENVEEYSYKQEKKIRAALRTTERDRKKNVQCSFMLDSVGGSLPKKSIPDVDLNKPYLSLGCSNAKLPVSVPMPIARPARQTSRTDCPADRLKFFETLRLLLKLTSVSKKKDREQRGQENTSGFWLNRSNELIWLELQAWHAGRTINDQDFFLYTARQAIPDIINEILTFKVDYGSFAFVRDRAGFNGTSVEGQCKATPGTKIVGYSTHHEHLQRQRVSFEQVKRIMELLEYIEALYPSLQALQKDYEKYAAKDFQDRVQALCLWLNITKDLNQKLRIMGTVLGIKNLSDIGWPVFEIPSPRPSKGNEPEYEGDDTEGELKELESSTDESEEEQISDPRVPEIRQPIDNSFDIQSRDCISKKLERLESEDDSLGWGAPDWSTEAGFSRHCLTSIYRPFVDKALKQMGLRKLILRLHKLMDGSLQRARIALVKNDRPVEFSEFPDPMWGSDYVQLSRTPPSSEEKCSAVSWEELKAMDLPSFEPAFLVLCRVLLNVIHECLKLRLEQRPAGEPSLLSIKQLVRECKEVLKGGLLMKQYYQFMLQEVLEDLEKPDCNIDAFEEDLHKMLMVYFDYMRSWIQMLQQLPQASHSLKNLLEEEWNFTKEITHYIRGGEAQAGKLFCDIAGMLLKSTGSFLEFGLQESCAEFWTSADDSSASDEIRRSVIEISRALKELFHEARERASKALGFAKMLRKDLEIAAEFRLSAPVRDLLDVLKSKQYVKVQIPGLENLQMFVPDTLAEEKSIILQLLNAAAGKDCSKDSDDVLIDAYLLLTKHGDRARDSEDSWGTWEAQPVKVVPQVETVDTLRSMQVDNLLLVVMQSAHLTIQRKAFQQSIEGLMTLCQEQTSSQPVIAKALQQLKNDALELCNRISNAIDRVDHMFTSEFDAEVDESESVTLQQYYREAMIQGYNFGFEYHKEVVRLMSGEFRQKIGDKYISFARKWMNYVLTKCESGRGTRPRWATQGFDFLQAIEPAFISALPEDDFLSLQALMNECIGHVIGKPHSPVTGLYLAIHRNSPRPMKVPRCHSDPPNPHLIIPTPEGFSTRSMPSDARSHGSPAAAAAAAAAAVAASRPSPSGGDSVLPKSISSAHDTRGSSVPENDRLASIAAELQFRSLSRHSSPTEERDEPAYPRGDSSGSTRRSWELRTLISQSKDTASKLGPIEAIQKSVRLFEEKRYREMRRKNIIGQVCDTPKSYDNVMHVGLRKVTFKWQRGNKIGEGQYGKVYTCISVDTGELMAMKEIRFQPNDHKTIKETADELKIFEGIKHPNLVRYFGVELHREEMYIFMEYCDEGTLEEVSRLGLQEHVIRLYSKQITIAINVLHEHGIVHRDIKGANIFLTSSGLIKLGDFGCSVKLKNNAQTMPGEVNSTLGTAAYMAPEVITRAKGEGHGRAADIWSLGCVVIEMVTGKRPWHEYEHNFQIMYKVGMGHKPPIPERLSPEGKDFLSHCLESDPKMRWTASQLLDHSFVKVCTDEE", "experiment": "Selectivity interaction (KinomeScan (DiscoverX)) EUB0000695a MAP3K4", "conditions": "at 100 nM"}, "[5]": {"molecular_target": "T1, Tyrosine-protein kinase ZAP-70 (Homo sapiens) (UniProt P43403)", "T1 sequence (whole entry)": "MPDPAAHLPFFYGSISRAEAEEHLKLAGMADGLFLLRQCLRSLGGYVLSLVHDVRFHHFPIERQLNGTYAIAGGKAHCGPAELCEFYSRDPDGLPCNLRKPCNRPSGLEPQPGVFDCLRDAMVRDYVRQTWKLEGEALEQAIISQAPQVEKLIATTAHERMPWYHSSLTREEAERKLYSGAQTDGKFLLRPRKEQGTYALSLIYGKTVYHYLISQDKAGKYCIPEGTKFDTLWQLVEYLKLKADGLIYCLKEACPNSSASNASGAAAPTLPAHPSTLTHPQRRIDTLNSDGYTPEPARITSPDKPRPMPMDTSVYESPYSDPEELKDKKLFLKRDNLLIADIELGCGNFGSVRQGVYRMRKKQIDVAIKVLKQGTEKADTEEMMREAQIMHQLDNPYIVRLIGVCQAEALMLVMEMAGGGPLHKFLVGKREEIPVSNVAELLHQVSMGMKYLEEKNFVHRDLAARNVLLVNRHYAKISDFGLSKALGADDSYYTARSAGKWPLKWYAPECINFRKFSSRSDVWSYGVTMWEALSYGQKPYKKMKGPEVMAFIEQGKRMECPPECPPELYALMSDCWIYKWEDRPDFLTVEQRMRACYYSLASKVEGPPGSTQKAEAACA", "experiment": "Selectivity interaction (KinomeScan (DiscoverX)) EUB0000695a ZAP70", "conditions": "at 100 nM"}, "[6]": {"molecular_target": "T2, Serine/threonine-protein kinase 17B (Homo sapiens) (UniProt O94768)", "T2 sequence (whole entry)": "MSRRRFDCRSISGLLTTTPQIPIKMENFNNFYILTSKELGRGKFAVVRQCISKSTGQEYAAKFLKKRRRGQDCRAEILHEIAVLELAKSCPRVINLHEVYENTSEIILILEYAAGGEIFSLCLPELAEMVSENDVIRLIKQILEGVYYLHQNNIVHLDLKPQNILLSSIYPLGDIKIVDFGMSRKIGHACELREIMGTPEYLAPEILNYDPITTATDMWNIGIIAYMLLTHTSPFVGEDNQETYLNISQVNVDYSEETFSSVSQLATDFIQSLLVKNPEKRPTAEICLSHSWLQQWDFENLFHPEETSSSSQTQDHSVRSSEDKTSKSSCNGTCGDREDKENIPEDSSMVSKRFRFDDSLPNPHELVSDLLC", "experiment": "Selectivity interaction (KinomeScan (DiscoverX)) EUB0000595a STK17B", "conditions": "at 10 µM"}, "[7]": {"molecular_target": "BDNF/NT-3 growth factors receptor (Homo sapiens) (UniProt Q16620)", "experiment": "Selectivity interaction (KinomeScan (DiscoverX)) EUB0000092b NTRK2", "conditions": "at 10 µM"}, "[8]": {"molecular_target": "T3, Serine/threonine-protein kinase NLK (Homo sapiens) (UniProt Q9UBE8)", "T3 sequence (whole entry)": "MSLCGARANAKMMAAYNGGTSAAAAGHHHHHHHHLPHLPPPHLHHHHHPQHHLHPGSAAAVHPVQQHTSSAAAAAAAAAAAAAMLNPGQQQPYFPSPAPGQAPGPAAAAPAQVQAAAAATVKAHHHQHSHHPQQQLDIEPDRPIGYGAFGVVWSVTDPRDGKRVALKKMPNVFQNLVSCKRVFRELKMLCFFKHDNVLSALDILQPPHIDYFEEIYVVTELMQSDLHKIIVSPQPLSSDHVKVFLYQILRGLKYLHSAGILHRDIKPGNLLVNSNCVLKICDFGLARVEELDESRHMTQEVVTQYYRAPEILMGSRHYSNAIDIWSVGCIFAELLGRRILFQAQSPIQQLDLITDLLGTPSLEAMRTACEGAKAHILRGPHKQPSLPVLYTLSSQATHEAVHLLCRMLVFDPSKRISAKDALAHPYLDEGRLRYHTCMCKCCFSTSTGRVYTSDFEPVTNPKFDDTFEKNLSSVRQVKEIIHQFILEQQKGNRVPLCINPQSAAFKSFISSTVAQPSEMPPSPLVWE", "experiment": "Selectivity interaction (KinomeScan (DiscoverX)) EUB0000618a NLK", "conditions": "at 10 µM"}, "[9]": {"molecular_target": "Dual specificity protein kinase CLK3 (Homo sapiens, UniProt P49761)", "sequence (P49761 whole entry, looked up)": "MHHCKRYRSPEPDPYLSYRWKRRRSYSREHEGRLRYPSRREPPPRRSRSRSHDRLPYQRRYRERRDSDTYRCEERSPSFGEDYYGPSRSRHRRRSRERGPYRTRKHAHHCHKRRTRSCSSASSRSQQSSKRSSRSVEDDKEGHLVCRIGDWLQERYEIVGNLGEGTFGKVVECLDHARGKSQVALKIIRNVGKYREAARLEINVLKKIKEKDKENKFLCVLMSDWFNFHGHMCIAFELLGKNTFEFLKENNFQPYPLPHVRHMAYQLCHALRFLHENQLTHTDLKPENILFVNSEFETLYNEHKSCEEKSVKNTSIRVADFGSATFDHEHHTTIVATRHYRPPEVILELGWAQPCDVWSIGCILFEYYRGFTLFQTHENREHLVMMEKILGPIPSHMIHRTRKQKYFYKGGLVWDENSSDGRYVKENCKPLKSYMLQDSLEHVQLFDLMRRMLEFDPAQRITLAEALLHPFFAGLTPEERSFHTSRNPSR", "experiment": "Selectivity interaction (Kinase panel (DSF assay)) EUB0001559a CLK3"}, "[10]": {"molecular_target": "T4, Tyrosine-protein kinase ITK/TSK (Homo sapiens) (UniProt Q08881)", "T4 sequence (whole entry)": "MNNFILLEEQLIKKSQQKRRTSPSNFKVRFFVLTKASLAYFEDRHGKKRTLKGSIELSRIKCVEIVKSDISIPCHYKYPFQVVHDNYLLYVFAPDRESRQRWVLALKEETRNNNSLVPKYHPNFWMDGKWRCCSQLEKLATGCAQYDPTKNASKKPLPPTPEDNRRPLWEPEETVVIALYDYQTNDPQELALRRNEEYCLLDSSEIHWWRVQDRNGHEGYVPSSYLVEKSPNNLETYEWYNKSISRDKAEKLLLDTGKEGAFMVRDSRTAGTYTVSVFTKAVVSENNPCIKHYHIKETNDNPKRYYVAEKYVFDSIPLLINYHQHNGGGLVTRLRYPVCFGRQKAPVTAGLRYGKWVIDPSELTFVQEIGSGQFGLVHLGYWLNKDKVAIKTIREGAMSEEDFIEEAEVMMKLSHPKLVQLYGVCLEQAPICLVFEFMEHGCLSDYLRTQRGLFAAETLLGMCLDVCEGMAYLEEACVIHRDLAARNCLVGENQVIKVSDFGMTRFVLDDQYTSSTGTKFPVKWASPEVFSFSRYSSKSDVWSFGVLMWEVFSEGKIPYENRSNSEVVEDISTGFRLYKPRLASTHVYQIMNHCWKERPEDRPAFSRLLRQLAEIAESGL", "experiment": "Selectivity interaction (KinomeScan (DiscoverX)) EUB0000607a ITK", "conditions": "at 10 µM"}, "[11]": {"molecular_target": "Mitogen-activated protein kinase kinase kinase kinase 1 (Homo sapiens) (UniProt Q92918)", "sequence (Q92918 whole entry, looked up)": "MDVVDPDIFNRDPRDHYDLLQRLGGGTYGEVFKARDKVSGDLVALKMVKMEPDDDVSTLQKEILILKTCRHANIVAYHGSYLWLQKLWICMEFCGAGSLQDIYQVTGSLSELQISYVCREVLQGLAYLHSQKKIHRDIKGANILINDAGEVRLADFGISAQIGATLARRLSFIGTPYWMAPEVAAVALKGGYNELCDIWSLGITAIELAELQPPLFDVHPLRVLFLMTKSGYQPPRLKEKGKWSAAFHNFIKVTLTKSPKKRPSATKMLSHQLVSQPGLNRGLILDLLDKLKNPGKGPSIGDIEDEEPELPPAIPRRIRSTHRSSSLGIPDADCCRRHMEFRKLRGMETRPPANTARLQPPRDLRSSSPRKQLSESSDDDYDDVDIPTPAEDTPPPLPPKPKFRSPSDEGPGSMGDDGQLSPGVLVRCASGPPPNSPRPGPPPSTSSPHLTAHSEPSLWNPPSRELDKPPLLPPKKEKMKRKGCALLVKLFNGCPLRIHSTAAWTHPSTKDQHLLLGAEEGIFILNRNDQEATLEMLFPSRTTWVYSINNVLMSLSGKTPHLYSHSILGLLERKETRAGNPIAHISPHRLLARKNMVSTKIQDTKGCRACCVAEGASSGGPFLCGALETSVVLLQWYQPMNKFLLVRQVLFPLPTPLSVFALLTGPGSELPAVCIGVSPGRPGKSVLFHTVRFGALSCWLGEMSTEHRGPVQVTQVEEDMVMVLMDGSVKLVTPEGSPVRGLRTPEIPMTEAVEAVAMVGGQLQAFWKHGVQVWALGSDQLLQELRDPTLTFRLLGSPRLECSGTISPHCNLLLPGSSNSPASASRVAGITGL", "experiment": "Selectivity interaction (Kinase panel (KiNativ target engagement assay in Jurkat cells)) EUB0001635a MAP4K1", "type": "cell-based", "conditions": "Selectivity number of off-targets 0.0, Selectivity number of targets 233.0, Source Knowledge https://www.sciencedirect.com/science/article/pii/S2451945619300674?via%3Dihub, at 1 µM"}}}
{"smiles": "Cc1cc([C@@H](C)Nc2ccccc2C(=O)O)c2nc(N3CCOCC3)cc(=O)n2c1", "note": "[AZD-6482]", "values": [{"measurement": "% of control", "setting": "[1]", "value": 100, "unit": "%"}, {"measurement": "% of control", "setting": "[2]", "value": 91, "unit": "%"}]}
{"smiles": "CC[C@@H]1[C@H](F)C(=O)N[C@@H]1COc1nccc2cc(C(N)=O)c(OC)cc12", "note": "[ZIMLOVISERTIB]", "values": [{"measurement": "% of inhibition", "setting": "[3]", "value": 4.9, "unit": "%"}]}
{"smiles": "Cc1cc(F)c(C(=O)Nc2cccc(-c3nncn3C(C)C)n2)cc1-n1cnc(C2CC2)c1", "values": [{"measurement": "% of control", "setting": "[4]", "value": 92, "unit": "%"}, {"measurement": "% of control", "setting": "[5]", "value": 100, "unit": "%"}]}
{"smiles": "COCC(=O)NC/C=C/c1ccc2ncnc(Nc3ccc(Oc4ccc(C)nc4)c(C)c3)c2c1", "note": "[CP-724714]", "values": [{"measurement": "% of control", "setting": "[6]", "value": 100, "unit": "%"}]}
{"smiles": "CCC(=O)N1CCN(c2ccc(-n3c(=O)ccc4cnc5ccc(-c6cnc7ccccc7c6)cc5c43)cc2C(F)(F)F)CC1", "values": [{"measurement": "% of control", "setting": "[7]", "value": 81, "unit": "%"}]}
{"smiles": "O[C@H]1CC[C@H](Nc2ncc3nc(Nc4c(F)cc(F)cc4F)n([C@H]4CCOC4)c3n2)CC1", "values": [{"measurement": "% of control", "setting": "[8]", "value": 5.2, "unit": "%"}]}
{"smiles": "CN(C(=O)c1cnn2cccnc12)c1cc2c(cc1N1CCOCC1)C(=O)N(C[C@@H](F)C(C)(C)O)C2", "values": [{"measurement": "dTM", "setting": "[9]", "value": 0, "unit": "K"}]}
{"smiles": "CNC(=O)Nc1ccc(-c2nc(N3CC4CCC(C3)O4)c3cnn(C4CCC5(CC4)OCCO5)c3n2)cc1", "values": [{"measurement": "% of control", "setting": "[10]", "value": 88, "unit": "%"}]}
{"smiles": "C=CC(=O)Nc1ccc(C(=O)Nc2[nH]nc3c2CN(C(=O)N[C@H](CN(C)C)c2ccccc2)C3(C)C)cc1", "values": [{"measurement": "% of engagement", "setting": "[11]", "value": 4.1, "unit": "%"}]}
